Data on 23 compounds can be found in patent publication US20120202847A1, “Novel Tetrahydroisoquinoline Compounds” (priority 2009, published 2012).

The assay deals with T1, DGAT1 enzyme (Homo sapiens, UniProt O75907).
T1 construct: made in house
T1 sequence (O75907 1-488): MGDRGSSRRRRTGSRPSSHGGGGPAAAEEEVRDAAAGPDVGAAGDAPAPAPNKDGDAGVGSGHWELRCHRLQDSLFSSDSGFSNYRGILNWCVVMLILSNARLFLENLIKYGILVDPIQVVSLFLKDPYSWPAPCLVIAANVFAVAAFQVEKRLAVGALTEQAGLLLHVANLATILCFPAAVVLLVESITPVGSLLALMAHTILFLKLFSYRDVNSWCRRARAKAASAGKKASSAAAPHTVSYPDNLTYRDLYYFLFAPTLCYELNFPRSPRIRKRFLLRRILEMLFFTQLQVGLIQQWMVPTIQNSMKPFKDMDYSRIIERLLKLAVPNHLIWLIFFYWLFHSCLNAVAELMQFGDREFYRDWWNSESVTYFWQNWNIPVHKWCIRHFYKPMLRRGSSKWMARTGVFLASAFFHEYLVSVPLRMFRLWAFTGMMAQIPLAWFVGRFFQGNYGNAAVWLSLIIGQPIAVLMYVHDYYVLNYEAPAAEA
Put plainly: DGAT1 inhibitory activity test. It is filed as biochemical. Particulars: test compound concentration of 0.05 μg/ml; [14C]-oleoyl-CoA, 23° C., 30 minutes; read-out: Inhibitory Rate. The protocol: (1) Preparation of DGAT1 Enzyme
DGAT1 enzyme was prepared and stored according to the method described in US2007/0249620.
(2) DGAT1 Inhibitory Activity Test
A reaction solution having the following composition was incubated at room temperature (23° C.) for 30 minutes: 175 mM Tris-HCl (pH 8.0), 8 mM MgCl2, 1 mg/ml BSA, 0.3 mM 1,2-dioleoyl-sn-glycerol (10-fold concentration of EtOH solution, 10% added), 10 μM [^14C]-oleoyl-CoA (approximately 50 mCi/mmol), 0.5% Triton X-100, the DGAT1 enzyme (10 μg) obtained in Test Example 1(1), and a test compound or vehicle (DMSO/MeOH, 7:3 solution, 5% added), 50 μl in total. A reaction stop solution […] consisting of isopropanol/1-heptane/water (80:20:2, v/v/v) was added to the reaction solution and stirred. Subsequently, water […] and 1-heptane (100 μl) were added thereto and stirred. The 1-heptane layer […] was spotted onto a TLC plate and developed with a developing solvent consisting of 1-hexane/diethyl ether/acetic acid (85:15:1, v/v/v). The radioactivity of the triglyceride fraction was quantified using BAS2500 Bio Image Analyzer (FUJIFILM) and compared with the control. The inhibitory activity of the test compound was calculated according to the formula shown below. In this context, the radioactivity at no reaction (0 minute incubation) was used as background.
Inhibitory Rate=100−[(Radioactivity of sample supplemented with test compound)−(Background)]/[(Radioactivity of control)−(Background)]×100
On to `Cc1cccc(NC(=O)Nc2ccc3c(c2)CCN(C(=O)O[C@H]2CC[C@H](CC(=O)O)CC2)C3)c1F` [Example 6, trans-6-[3-(2-fluoro-3-methyl-phenyl)-ureido]-3,4-dihydro-1H-isoquinoline-2-carboxylic acid 4-carboxymethyl-cyclohexyl ester], for which the inhibition at 0.05 µg/mL is at least 50%.

As for `COc1ccc(NC(=O)Nc2ccc3c(c2)CCN(C(=O)O[C@H]2CC[C@H](CC(=O)O)CC2)C3)cc1F` [Example 45, trans-6-[3-(3-fluoro-4-methoxy-phenyl)-ureido]-3,4-dihydro-1H-isoquinoline-2-carboxylic acid 4-carboxymethyl-cyclohexyl ester], the inhibition at 0.05 µg/mL is at least 50%. Under `O=C(O)C[C@H]1CC[C@H](OC(=O)N2CCc3cc(NC(=O)Nc4ccc(F)c(F)c4F)ccc3C2)CC1` [Example 14, trans-6-[3-(2,3,4-trifluoro-phenyl)-ureido]-3,4-dihydro-1H-isoquinoline-2-carboxylic acid 4-carboxymethyl-cyclohexyl ester] stands at least 50%; under `Cc1ccc(F)c(NC(=O)Nc2ccc3c(c2)CCN(C(=O)O[C@H]2CC[C@H](CC(=O)O)CC2)C3)c1` [Example 7, trans-6-[3-(2-fluoro-5-methyl-phenyl)-ureido]-3,4-dihydro-1H-isoquinoline-2-carboxylic acid 4-carboxymethyl-cyclohexyl ester], at least 50%. For `O=C(O)C[C@H]1CC[C@H](OC(=O)N2CCc3cc(NC(=O)Nc4ccc(Cl)c(Cl)c4)ccc3C2)CC1` [Example 40, trans-6-[3-(3,4-dichloro-phenyl)-ureido]-3,4-dihydro-1H-isoquinoline-2-carboxylic acid 4-carboxymethyl-cyclohexyl ester] the value was at least 50%; for `Cc1ccc(NC(=O)Nc2ccc3c(c2)CCN(C(=O)O[C@H]2CC[C@H](CC(=O)O)CC2)C3)cc1Cl` [Example 34, trans-6-[3-(3-chloro-4-methyl-phenyl)-ureido]-3,4-dihydro-1H-isoquinoline-2-carboxylic acid 4-carboxymethyl-cyclohexyl ester], at least 50%; for `Cc1cccc(NC(=O)Nc2ccc3c(c2)CCN(C(=O)O[C@H]2CC[C@H](CC(=O)O)CC2)C3)c1C` [Example 35, trans-6-[3-(2,3-dimethyl-phenyl)-ureido]-3,4-dihydro-1H-isoquinoline-2-carboxylic acid 4-carboxymethyl-cyclohexyl ester], at least 50%.

Turning to `Cc1ccc(NC(=O)Nc2ccc3c(c2)CCN(C(=O)O[C@H]2CC[C@H](CC(=O)O)CC2)C3)c(Cl)c1` [Example 20, trans-6-[3-(2-chloro-4-methyl-phenyl)-ureido]-3,4-dihydro-1H-isoquinoline-2-carboxylic acid 4-carboxymethyl-cyclohexyl ester], the inhibition at 0.05 µg/mL was at least 50%. Under `Cc1ccc(NC(=O)Nc2ccc3c(c2)CCN(C(=O)O[C@H]2CC[C@H](CC(=O)O)CC2)C3)c(C)c1` [Example 23, trans-6-[3-(2,4-dimethyl-phenyl)-ureido]-3,4-dihydro-1H-isoquinoline-2-carboxylic acid 4-carboxymethyl-cyclohexyl ester] stands at least 50%; under `O=C(O)C[C@H]1CC[C@H](OC(=O)N2CCc3cc(NC(=O)Nc4cccc(Cl)c4Cl)ccc3C2)CC1` [Example 37, trans-6-[3-(2,3-dichloro-phenyl)-ureido]-3,4-dihydro-1H-isoquinoline-2-carboxylic acid 4-carboxymethyl-cyclohexyl ester], at least 50%.

For `COc1cc(NC(=O)Nc2ccc3c(c2)CCN(C(=O)O[C@H]2CC[C@H](CC(=O)O)CC2)C3)cc(OC)c1` [Example 39, trans-6-[3-(3,5-dimethoxy-phenyl)-ureido]-3,4-dihydro-1H-isoquinoline-2-carboxylic acid 4-carboxymethyl-cyclohexyl ester], the inhibition at 0.05 µg/mL was at least 50%. For `O=C(O)C[C@H]1CC[C@H](OC(=O)N2CCc3cc(NC(=O)Nc4c(F)cc(F)cc4F)ccc3C2)CC1` [Example 15, trans-6-[3-(2,4,6-trifluoro-phenyl)-ureido]-3,4-dihydro-1H-isoquinoline-2-carboxylic acid 4-carboxymethyl-cyclohexyl ester] the value was at least 50%. Under `O=C(O)C[C@H]1CC[C@H](OC(=O)N2CCc3cc(NC(=O)Nc4cc(Cl)cc(Cl)c4)ccc3C2)CC1` [Example 43, trans-6-[3-(3,5-dichloro-phenyl)-ureido]-3,4-dihydro-1H-isoquinoline-2-carboxylic acid 4-carboxymethyl-cyclohexyl ester] stands at least 50%; under `Cc1cccc(NC(=O)Nc2ccc3c(c2)CCN(C(=O)O[C@H]2CC[C@H](CC(=O)O)CC2)C3)c1Cl` [Example 27, trans-6-[3-(2-chloro-3-methyl-phenyl)-ureido]-3,4-dihydro-1H-isoquinoline-2-carboxylic acid 4-carboxymethyl-cyclohexyl ester], at least 50%; under `O=C(O)C[C@H]1CC[C@H](OC(=O)N2CCc3cc(NC(=O)Nc4ccccc4C(F)(F)F)ccc3C2)CC1` [Example 17, trans-6-[3-(2-trifluoromethyl-phenyl)-ureido]-3,4-dihydro-1H-isoquinoline-2-carboxylic acid 4-carboxymethyl-cyclohexyl ester], at least 50%. Under `COc1ccc(NC(=O)Nc2ccc3c(c2)CCN(C(=O)O[C@H]2CC[C@H](CC(=O)O)CC2)C3)cc1Cl` [Example 41, trans-6-[3-(3-chloro-4-methoxy-phenyl)-ureido]-3,4-dihydro-1H-isoquinoline-2-carboxylic acid 4-carboxymethyl-cyclohexyl ester] stands at least 50%. As to `Cc1ccc(NC(=O)Nc2ccc3c(c2)CCN(C(=O)O[C@H]2CC[C@H](CC(=O)O)CC2)C3)c(F)c1` [Example 8, trans-6-[3-(2-fluoro-4-methyl-phenyl)-ureido]-3,4-dihydro-1H-isoquinoline-2-carboxylic acid 4-carboxymethyl-cyclohexyl ester], the inhibition at 0.05 µg/mL was at least 50%. For `O=C(O)C[C@H]1CC[C@H](OC(=O)N2CCc3cc(NC(=O)Nc4ccc(C(F)(F)F)cc4Cl)ccc3C2)CC1` [Example 29, trans-6-[3-(2-chloro-4-trifluoromethyl-phenyl)-ureido]-3,4-dihydro-1H-isoquinoline-2-carboxylic acid 4-carboxymethyl-cyclohexyl ester] the value was at least 50%.

In the case of `Cc1cccc(F)c1NC(=O)Nc1ccc2c(c1)CCN(C(=O)O[C@H]1CC[C@H](CC(=O)O)CC1)C2` [Example 9, trans-6-[3-(2-fluoro-6-methyl-phenyl)-ureido]-3,4-dihydro-1H-isoquinoline-2-carboxylic acid 4-carboxymethyl-cyclohexyl ester], the inhibition at 0.05 µg/mL is at least 50%.

For the compound `Cc1c(Cl)cccc1NC(=O)Nc1ccc2c(c1)CCN(C(=O)O[C@H]1CC[C@H](CC(=O)O)CC1)C2` [Example 36, trans-6-[3-(3-chloro-2-methyl-phenyl)-ureido]-3,4-dihydro-1H-isoquinoline-2-carboxylic acid 4-carboxymethyl-cyclohexyl ester], the inhibition at 0.05 µg/mL was at least 50%. For `O=C(O)C[C@H]1CC[C@H](OC(=O)N2CCc3cc(NC(=O)Nc4c(F)cccc4C(F)(F)F)ccc3C2)CC1` [Example 25, trans-6-[3-(2-fluoro-6-trifluoromethyl-phenyl)-ureido]-3,4-dihydro-1H-isoquinoline-2-carboxylic acid 4-carboxymethyl-cyclohexyl ester] the value was at least 50%; for `O=C(O)C[C@H]1CC[C@H](OC(=O)N2CCc3cc(NC(=O)Nc4cc(C(F)(F)F)ccc4F)ccc3C2)CC1` [Example 22, trans-6-[3-(2-fluoro-5-trifluoromethyl-phenyl)-ureido]-3,4-dihydro-1H-isoquinoline-2-carboxylic acid 4-carboxymethyl-cyclohexyl ester], at least 50%; for `O=C(O)C[C@H]1CC[C@H](OC(=O)N2CCc3cc(NC(=O)Nc4ccc(F)c(Cl)c4)ccc3C2)CC1` [Example 32, trans-6-[3-(3-chloro-4-fluoro-phenyl)-ureido]-3,4-dihydro-1H-isoquinoline-2-carboxylic acid 4-carboxymethyl-cyclohexyl ester], at least 50%.
